{
  "source": "patent US9974759B2",
  "about": "“Beta 2 adrenoceptor antagonists for treating orthostatic hypotension” (Indiana University Research & Technology Corporation, priority 2013, dated 2018)",
  "key": {"[1]": {"tested_on": "rat model of orthostatic hypotension", "settings": "no definite beneficial effect shown; cited from earlier work"}, "[2]": {"tested_on": "humans", "settings": "doses up to 80 mg orally, no continuous BP monitoring; cited from earlier work"}, "[3]": {"tested_on": "left thoracic vagal nerve", "test": "Ambulatory recording of vagal nerve activity (VNA)", "settings": "carvedilol 12 mg twice daily for a week or ICI infusion 7 days; immediately before drug 192.96", "description": "(§1) Eight mongrel dogs (4 male, weighing 20-30 kg) were used in this Example. Left thoracotomy was performed through the first intercostal space for the implantation of a D70-CCTP radiotransmitter manufactured by the Data Sciences International (DSI, St Paul, Minn.). The first pair of bipolar electrodes was inserted beneath the nerve sheath of the left stellate ganglion. A second pair of bipolar leads was attached to the left thoracic vagal nerve at a level of 4 to 5 cm above the aortic arch. The third lead, a catheter with a pressure sensor, was inserted directly into the subclavian artery for blood pressure (BP) recording. The transmitter and ground wires were inserted into a subcutaneous pocket.\n(§2) After 2 weeks of recovery, the radiotransmitter was turned on to record nerve signals and BP at baseline. The pre-implantation BP was calibrated against the ambient pressure in the vivarium. […]\n(§3) The nerve activities were integrated minute-by-minute. […] The mean BP was also analyzed minute-by-minute during the same period. […] Pearson correlation coefficients between these two nerve activities were calculated. […]\n(§4) To determine the relationship between BP, heart rate (HR) and ANS activities, 1-minute and 4-hour averages for each dog were calculated on each day of data collection starting at midnight. Pearson correlation coefficients between SGNA and VNA were also calculated within each 4-hour interval. […]"}, "[4]": {"tested_on": "left stellate ganglion", "test": "Ambulatory recording of stellate ganglion nerve activity (SGNA)", "settings": "carvedilol 12 mg twice daily for a week or ICI infusion 7 days; immediately before drug 209.40", "description": "as §1, §2, §3, §4"}, "[5]": {"tested_on": "mongrel dogs", "test": "Ambulatory monitoring of blood pressure in dogs (radiotransmitter, Protocol 1)", "settings": "for BP response following simultaneous termination of sympathovagal firing and postural change: FIGS. 5A-5I, example dog, baseline drop from 110 mmHg to 80 mmHg; for BP: all eight dogs, random effects model, oral carvedilol 12 mg twice daily for a week, or 7 days of ICI infusion (3.1 μg/kg/hr), baseline 125.60; for percentage of hypotensive episodes (mean systolic pressure <100 mmHg in one min): minute-by-minute data, all dogs, baseline 7.1%", "description": "as §1\nAfter 2 weeks of recovery, the radiotransmitter was turned on to record nerve signals and BP at baseline. The pre-implantation BP was calibrated against the ambient pressure in the vivarium. There was a 12-hour daylight cycle in the vivarium staring at 7 AM each day. After the baseline (stellate ganglion nerve activity (SGNA), vagal nerve activity (VNA), and BP) recordings, the dogs were given oral carvedilol, 12 mg twice daily for a week. The drugs were then washed out for a week and baseline recordings were re-collected. […] The pump is designed to empty its contents over 7 days at a rate of 10 μl/hr. Therefore, the infusion rate was 3.1 μg/kg/hr for a 30 kg dog. […] The data collected at days 6-7 of the infusion were used for analyses.\nThe nerve activities were integrated minute-by-minute. Because BP recordings are prone to motion artifacts, the data of all dogs included in Protocol 1 was manually reviewed and the first 10 noise-free minutes of each hour were selected for analyses. The mean BP was also analyzed minute-by-minute during the same period. The SGNA was plotted against the VNA on an XY graph to visualize the patterns of activation. Pearson correlation coefficients between these two nerve activities were calculated. The data obtained from the manual analyses were subjected to further statistical analyses as described below.\nTo determine the relationship between BP, heart rate (HR) and ANS activities, 1-minute and 4-hour averages for each dog were calculated on each day of data collection starting at midnight. Pearson correlation coefficients between SGNA and VNA were also calculated within each 4-hour interval. To analyze data from any given individual dog, multiple linear regression with systolic BP as the dependent variable and ANS activities as the independent variables based on 1-minute average data were used. To analyze data from all dogs and the 4-hour average data, a random effects model with dog as the random effect was used with the same dependent and independent variables, plus HR and the Pearson correlation coefficient as additional independent variables. […] A cubic smoothing spline was also used to fit BP versus hour for one dog. Statistical analysis was performed with IBM SPSS Statistics 19 (Armonk, N.Y.) and SAS version 9.3 (SAS Institute Inc., Cary, N.C.)."}},
  "note": "“Also recorded” adds a separate entry of the source.",
  "data": [
    {"smiles": "Cc1ccc(OCC(O)C(C)NC(C)C)c2c1CCC2", "note": "(stereo not drawn) [ICI-118,551, 3-(isopropylamino)-1-[(7-methyl-4-indanyl)oxy]butan-2-ol]", "values": [
      {"measurement": "effect on orthostatic symptoms", "setting": "[1]", "result": "had a tendency of improving orthostatic symptoms"},
      {"measurement": "effect on BP or heart rate", "setting": "[2]", "result": "does not alter BP or heart rate"},
      {"measurement": "iVNA (integrated vagal nerve activity)", "setting": "[3]", "result": "220.18 (95% CI: 156.46 to 283.90) mV-s"},
      {"measurement": "iSGNA (integrated stellate ganglion nerve activity)", "setting": "[4]", "result": "281.23 (95% CI: 230.30 to 332.16) mV-s"},
      {"measurement": "BP response following simultaneous termination of sympathovagal firing and postural change", "setting": "[5]; listed as ICI", "result": "no change in BP; also recorded: not followed by hypotension"},
      {"measurement": "BP", "setting": "[5]", "result": "133.00 (95% CI: 124.85 to 141.14) mmHg"},
      {"measurement": "percentage of hypotensive episodes (mean systolic pressure <100 mmHg in one min)", "setting": "[5]", "result": 1.3, "unit": "%"}
    ]},
    {"smiles": "COc1ccccc1OCCNCC(O)COc1cccc2[nH]c3ccccc3c12", "note": "(stereo not drawn) [carvedilol]", "values": [
      {"measurement": "iVNA (integrated vagal nerve activity)", "setting": "[3]", "result": 186.68, "unit": "mV-s"},
      {"measurement": "iSGNA (integrated stellate ganglion nerve activity)", "setting": "[4]", "result": "258.47 (95% CI: 207.20 to 309.75) mV-s"},
      {"measurement": "BP response following simultaneous termination of sympathovagal firing and postural change", "setting": "[5]", "result": "drop in BP from 100 mmHg to 80 mmHg; also recorded: followed by hypotension"},
      {"measurement": "BP", "setting": "[5]", "result": "124.8 (95% CI: 116.63 to 132.97) mmHg"},
      {"measurement": "percentage of hypotensive episodes (mean systolic pressure <100 mmHg in one min)", "setting": "[5]", "result": 7.8, "unit": "%"}
    ]}
  ]
}
